Measurements reported in PMC3951324, “Side Chain Hydrophobicity Modulates Therapeutic Activity and Membrane Selectivity of Antimicrobial Peptide Mastoparan-X” (PLoS ONE, 2014).
Values after ≈ are worked out from the molar mass of the structure shown. Square brackets hold non-standard residues; d marks the D form. Ends that are not written are not given here. Peptide text beside a SMILES is read from it. * marks the point of attachment. ξ: configuration not given here. ξGly(octyl) = CCCCCCCCC(N)C(=O)O; Octanoyl = CCCCCCCC(=O)*; Propionyl = CCC(=O)*

Key:
[1] = system: Escherichia coli, strain INV-α; experiment: Determination of minimal inhibitory concentration (MIC); format: cell-based; conditions: LB medium, 37°C, 20 h, shaking, peptide 0.05–50 µM, absorbance 570 nm, triplicates
Description: (§1) A stock dilution series with ten points, ranging from 1 µM to 1 mM, was prepared in sterile PBS from freshly dissolved peptides. The dilution series was dispensed in triplicates in 96-deepwell microtiter plates (VWR Denmark, Herlev, Denmark), with 15 µl in each well. Multidispensing with electronic pipettes (Biohit, Tåstrup, Denmark) was used throughout. Lactococcus lactis, strain MG1363 (ATCC, LGC Standards AB, Boras, Sweden) and Escherichia coli, strain INV-α (Invitrogen, Nærum, Denmark) were grown in M9 (Sigma Aldrich, Brøndby, Denmark) and LB medium (Difco, BD Biosciences, Brøndby Denmark), respectively. A single colony was grown overnight at 30°C and 37°C for L.lactis and E.coli respectively. The next day, a fresh culture was started with a twenty-fold dilution of the cells and grown for exactly 60 min (optical density was approximately 0.4 at 570 nm). The cell culture was diluted (300 fold for L.lactis and 1000 fold for E.coli) before adding 150 µl to microtiter plates already containing 15 µl peptide solution and 135 µl fresh medium. […] Plates with L.lactis were sealed with lid and parafilm, and plates with E.coli were sealed with a gas-permeable tape (VWR Denmark, Herlev, Denmark). The plates were incubated at the respective temperatures for 20 hours with shaking (150 rpm). For each measurement, 100 µl of the cell culture was transferred to clear, flat-bottomed microtiter plates, and the absorbance at 570 nm was determined using a Victor3 plate reader (Perkin Elmer, Skovlunde, Denmark). The measurement was conducted in triplicates.

[2] = system: Lactococcus lactis, strain MG1363; experiment: as above; format: cell-based; conditions: strain MG1363, M9 medium, 30°C, 20 h, shaking; peptide 0.05–50 µM; absorbance 570 nm; triplicates
Description: as §1

[3] = system: human red blood cells (RBCs); experiment: Haemolysis assay; format: cell-based; conditions: for % haemolysis: human RBCs; for H5, concentration at which 5% haemolysis has been obtained: purified human erythrocytes, assay as in Etzerodt et al. [14]
Description: All Fmoc (9H-fluoren-9-yl-methyloxycarbonyl) L-amino acids and HATU (1-[Bis(dimethylamino)methylene]-1H-1,2,3-triazolo[4,5-b]pyridinium 3-oxid hexafluorophosphate, N-[(Dimethylamino)-1H-1,2,3-triazolo-[4,5-b]pyridin-1-ylmethylene]-N-methylmethanaminium hexafluorophosphate N-oxide) were purchased from GLS China (GL Biochem, Shanghai, China). Fmoc-2-amino-decanoic acid was obtained from Watanabe Chemical Industries, Ltd (Hiroshima, Japan). Lys and Trp were side-chain-protected as tert-butoxycarbonyl, Asn was sidechain protected with trityl. Tentagel resin was purchased from NovaBiochem (Merck, Darmstadt, Germany). TFA (trifluoroacetic acid), TIS (triisopropylsilane), HEPES (N-(2-hydroxyethyl)piperazine-N-(2-ethanesulfonic acid)), 2,4,6-collidine and pyrene were purchased from Sigma-Aldrich (Brøndby, Denmark). Pyridine, sodium hydroxide pellets and sodium chloride was purchased from J.T. Baker Chemicals (Phillipsburg, NJ, USA). Filter supports and Hamilton extrusion syringes, POPG (1-palmitoyl-2-oleoyl-sn-glycero-3-[phospho-rac-(1-glycerol)] sodium salt), and POPC (1-palmitoyl-2-oleoyl-sn-glycero-3-phosphocholine) were purchased from Avanti Polar Lipids (Alabaster, AL). All compounds were used without further purification. Membrane filters for extrusion (100 nm pore size, polycarbonate) were purchased from Whatman (Maidstone, UK). Cuvettes (4×10 mm, quartz, Suprasil) were purchased from Hellma (Müllheim, Germany). Purified human erythrocytes for the haemolysis studies were provided by Bioneer (Hørsholm, Denmark), and were stored at 4°C for a maximum of three days before use.
The assay was conducted as described in Etzerodt et al..

[4] = Peptide partitioning by ITC; format: physicochemical; conditions: 37°C; for partition coefficient of insertion Kins/10^5: 10 mM POPC∶POPG (3∶1) LUVs into 20 µM peptide, pH 7.4, Gouy-Chapman-Stern fit, value is Kins divided by 10^5, triplicates; for effective partition coefficient Keff/10^8: derived from Kins, zeff and the surface potential of fully charged membrane (25 mol% negative charge), value is Keff divided by 10^8
Description: Lipid stock solutions of POPC and POPG were prepared in chloroform∶methanol (9∶1). Mixtures of POPC∶POPG (3∶1) were prepared and the organic solvent was evaporated under a gentle stream of nitrogen. The lipid films were kept in vacuum (P<0.1 Pa) overnight in order to remove the residual solvent. Buffer containing 10 mM HEPES and 100 mM sodium chloride (pH 7.4) was added to the lipid films, and they were hydrated for 60 min followed by extrusion through 100 nm using an Avanti mini-extruder. Dynamic Light Scattering (DLS, Brookhaven Instrument Corporation, ZetaPALS) was used for measuring the liposome size distribution. The effective lipid concentration was determined by inductively coupled plasma atomic emission spectroscopy (ICP-AES Vista AX, Varian).
The partitioning of AMPs onto lipid membranes was investigated by isothermal titration calorimetry (ITC, iTC200, Microcal, 204 µL cell volume). For the peptide analogues MPX, Ala1 and Ala14, 10 mM […] (3∶1) LUVs were injected (19×2 µL) into a 20 µM peptide solution at T = 37°C. The speed of the stirrer was 1000 rpms, and all titration were initiated with a 0.5 µL pre-injection. The heat-traces were integrated using custom made software, and the heat of partitioning was analysed using a partitioning isotherm based on Gouy-Chapman-Stern description of the electrostatic interaction of the peptide and membrane, [32]. The effective charge of the peptide (zeff), the partitioning coefficient of insertion (Kins), the molar enthalpy of partitioning ( [drawing 4] ), and the heat of dilution (qdil) were extracted as fitting parameters. The effective partitioning coefficient was derived as [drawing 5] where F is Faradays constant, [drawing 6] is the electrostatic potential evaluated at the interface of a fully charged membrane (25mol% negative charge before insertion of the first peptide), and R is the ideal gas constant. The instrument was electrically calibrated, and blank titration of LUVs into buffer was performed to ensure that heat of dilution could be modelled as a constant in the data analysis. Each titration was conducted in triplicates.

## INWKGIAAMAKKLA-NH2 [Ala14]
[1]
  MIC (E. coli): 33 ± 8 µM
[2]
  MIC (L. lactis): 21 ± 4 µM
[3]; 50 µM peptide
  % haemolysis: ~1.5%
[3]; 200 µM peptide
  % haemolysis: ~4%
[3]
  H5, concentration at which 5% haemolysis has been obtained: 220 ± 20 µM
[4]
  partition coefficient of insertion Kins/10^5: 1.4±0.3
  effective partition coefficient Keff/10^8: 1.1±0.2

## INWKGIALMAKKLL-NH2 [Leu8]
[1]
  MIC (E. coli): 7 ± 3 µM
[2]
  MIC (L. lactis): 2.5 ± 1.3 µM
[3]
  H5, concentration at which 5% haemolysis has been obtained: 14 ± 2 µM

## ANWKGIAAMAKKLL-NH2 [Ala1]
[1]
  MIC (E. coli): 33 ± 8 µM
[2]
  MIC (L. lactis): 18 ± 7 µM
[3]; 50 µM peptide
  % haemolysis: ~1.5%
[3]; 200 µM peptide
  % haemolysis: ~4%
[3]
  H5, concentration at which 5% haemolysis has been obtained: 230 ± 10 µM
[4]
  partition coefficient of insertion Kins/10^5: 1.1±0.1
  effective partition coefficient Keff/10^8: 25±7

## CCCCCCCCC(NC(=O)[C@H](CC(C)C)NC(=O)[C@H](CCCCN)NC(=O)[C@H](CCCCN)NC(=O)[C@H](C)NC(=O)[C@H](CCSC)NC(=O)[C@H](C)NC(=O)[C@H](C)NC(=O)[C@@H](NC(=O)CNC(=O)[C@H](CCCCN)NC(=O)[C@H](Cc1c[nH]c2ccccc12)NC(=O)[C@H](CC(N)=O)NC(=O)[C@@H](N)[C@@H](C)CC)[C@@H](C)CC)C(N)=O (stereo partly shown) [Adec14] (H-INWKGIAAMAKKL[ξGly(octyl)]-NH2)
[1]
  MIC (E. coli): 3.3 ± 0.8 µM (≈ 5.32 µg/mL)
[2]
  MIC (L. lactis): 1.7 ± 0.4 µM (≈ 2.74 µg/mL)
[3]; 50 µM peptide
  % haemolysis: full haemolysis
[3]
  H5, concentration at which 5% haemolysis has been obtained: 0.8 ± 0.2 µM

## CCCCCCCCC(NC(=O)[C@H](C)NC(=O)[C@@H](NC(=O)CNC(=O)[C@H](CCCCN)NC(=O)[C@H](Cc1c[nH]c2ccccc12)NC(=O)[C@H](CC(N)=O)NC(=O)[C@@H](N)[C@@H](C)CC)[C@@H](C)CC)C(=O)N[C@@H](CCSC)C(=O)N[C@@H](C)C(=O)N[C@@H](CCCCN)C(=O)N[C@@H](CCCCN)C(=O)N[C@@H](CC(C)C)C(=O)N[C@@H](CC(C)C)C(N)=O (stereo partly shown) [Adec8] (H-INWKGIA[ξGly(octyl)]MAKKLL-NH2)
[1]
  MIC (E. coli): 4.2 ± 0.8 µM (≈ 6.95 µg/mL)
[2]
  MIC (L. lactis): 4.2 ± 0.8 µM (≈ 6.95 µg/mL)
[3]; 50 µM peptide
  % haemolysis: full haemolysis
[3]
  H5, concentration at which 5% haemolysis has been obtained: 1 ± 1 µM

## CCC(=O)N[C@H](C(=O)N[C@@H](CC(N)=O)C(=O)N[C@@H](Cc1c[nH]c2ccccc12)C(=O)N[C@@H](CCCCN)C(=O)NCC(=O)N[C@H](C(=O)N[C@@H](C)C(=O)N[C@@H](C)C(=O)N[C@@H](CCSC)C(=O)N[C@@H](C)C(=O)N[C@@H](CCCCN)C(=O)N[C@@H](CCCCN)C(=O)N[C@@H](CC(C)C)C(=O)N[C@@H](CC(C)C)C(N)=O)[C@@H](C)CC)[C@@H](C)CC [PAMPX] (Propionyl-INWKGIAAMAKKLL-NH2)
[1]
  MIC (E. coli): 21 ± 4 µM (≈ 33.9 µg/mL)
[2]
  MIC (L. lactis): 3.3 ± 0.8 µM (≈ 5.32 µg/mL)
[3]; 50 µM peptide
  % haemolysis: 10%
[3]
  H5, concentration at which 5% haemolysis has been obtained: 25 ± 1 µM

## CCCCCCCC(=O)N[C@H](C(=O)N[C@@H](CC(N)=O)C(=O)N[C@@H](Cc1c[nH]c2ccccc12)C(=O)N[C@@H](CCCCN)C(=O)NCC(=O)N[C@H](C(=O)N[C@@H](C)C(=O)N[C@@H](C)C(=O)N[C@@H](CCSC)C(=O)N[C@@H](C)C(=O)N[C@@H](CCCCN)C(=O)N[C@@H](CCCCN)C(=O)N[C@@H](CC(C)C)C(=O)N[C@@H](CC(C)C)C(N)=O)[C@@H](C)CC)[C@@H](C)CC [OAMPX] (Octanoyl-INWKGIAAMAKKLL-NH2)
[1]
  MIC (E. coli): 5 ± 1 µM (≈ 8.41 µg/mL)
[2]
  MIC (L. lactis): 3.3 ± 0.8 µM (≈ 5.55 µg/mL)
[3]; 50 µM peptide
  % haemolysis: full haemolysis
[3]
  H5, concentration at which 5% haemolysis has been obtained: 1.1 ± 0.3 µM

## CCCCCCCCC(N)C(=O)N[C@@H](CC(N)=O)C(=O)N[C@@H](Cc1c[nH]c2ccccc12)C(=O)N[C@@H](CCCCN)C(=O)NCC(=O)N[C@H](C(=O)N[C@@H](C)C(=O)N[C@@H](C)C(=O)N[C@@H](CCSC)C(=O)N[C@@H](C)C(=O)N[C@@H](CCCCN)C(=O)N[C@@H](CCCCN)C(=O)N[C@@H](CC(C)C)C(=O)N[C@@H](CC(C)C)C(N)=O)[C@@H](C)CC (stereo partly shown) [Adec1] (H-[ξGly(octyl)]NWKGIAAMAKKLL-NH2)
[1]
  MIC (E. coli): 3.3 ± 0.8 µM (≈ 5.32 µg/mL)
[2]
  MIC (L. lactis): 1.7 ± 0.4 µM (≈ 2.74 µg/mL)
[3]; 50 µM peptide
  % haemolysis: full haemolysis
[3]
  H5, concentration at which 5% haemolysis has been obtained: 0.7 ± 0.1 µM
